# Measurements: patent publication US8604217B2, “Compound, a process for its preparation, a pharmaceutical composition, use of a compound, a method for modulating or regulating serine/threonine kinases and a serine/threonine kinases modulating agent” (Selvita S.A., priority 2009, dated 2013)
# How the values were obtained:
# Experiment in all cases: KinaseProfiler kinase panel
# Assay type in all cases: biochemical
# HIPK2(h) = HIPK2(h) (Homo sapiens (Human), UniProt Q9H2X6)
# CDK2/cyclinE(h) = CDK2/cyclinE(h) (Homo sapiens (Human), UniProt P24941)
# CDK2/cyclinA(h) = CDK2/cyclinA(h) (Homo sapiens (Human), UniProt P24941)
# HIPK1(h) = HIPK1(h) (Homo sapiens (Human), UniProt Q86Z02)
# PKCθ(h) = PKCθ(h) (Homo sapiens (Human), UniProt Q04759)
# Ret (V804L)(h) = Ret (V804L)(h) (Homo sapiens (Human), UniProt P07949, V804L)
# Chain of Ret (V804L)(h) (P07949 29-1114 V804L): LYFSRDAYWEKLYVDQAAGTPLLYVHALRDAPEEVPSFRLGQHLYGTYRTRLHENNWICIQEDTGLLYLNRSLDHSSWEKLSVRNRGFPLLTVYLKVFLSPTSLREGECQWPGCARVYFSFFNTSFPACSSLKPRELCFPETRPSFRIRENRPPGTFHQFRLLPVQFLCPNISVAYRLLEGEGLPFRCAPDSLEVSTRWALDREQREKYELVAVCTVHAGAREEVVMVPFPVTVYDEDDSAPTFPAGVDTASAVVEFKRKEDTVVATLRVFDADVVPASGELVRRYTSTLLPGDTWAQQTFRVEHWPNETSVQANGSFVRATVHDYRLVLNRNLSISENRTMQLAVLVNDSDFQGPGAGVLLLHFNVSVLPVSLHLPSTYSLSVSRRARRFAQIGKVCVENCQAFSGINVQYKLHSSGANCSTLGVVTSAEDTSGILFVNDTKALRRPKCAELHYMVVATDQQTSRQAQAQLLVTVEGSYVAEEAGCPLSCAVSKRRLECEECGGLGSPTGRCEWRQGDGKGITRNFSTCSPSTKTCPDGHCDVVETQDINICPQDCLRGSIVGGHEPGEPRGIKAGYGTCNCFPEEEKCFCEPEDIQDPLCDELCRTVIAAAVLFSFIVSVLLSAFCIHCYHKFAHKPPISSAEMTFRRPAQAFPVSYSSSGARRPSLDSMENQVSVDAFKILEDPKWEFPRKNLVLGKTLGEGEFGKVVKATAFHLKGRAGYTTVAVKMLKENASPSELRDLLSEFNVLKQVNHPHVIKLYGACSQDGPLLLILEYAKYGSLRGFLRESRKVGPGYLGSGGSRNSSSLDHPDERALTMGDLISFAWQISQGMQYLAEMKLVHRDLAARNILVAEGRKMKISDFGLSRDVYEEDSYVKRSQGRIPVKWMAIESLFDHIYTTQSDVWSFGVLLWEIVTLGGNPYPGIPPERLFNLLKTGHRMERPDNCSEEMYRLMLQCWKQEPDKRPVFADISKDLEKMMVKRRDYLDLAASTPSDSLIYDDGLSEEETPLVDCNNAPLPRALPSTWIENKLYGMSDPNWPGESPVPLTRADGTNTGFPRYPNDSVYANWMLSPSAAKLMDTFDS
# PKBγ(h) = PKBγ(h) (Homo sapiens (Human), UniProt Q9Y243)
# Src(T341M)(h) = Src(T341M)(h) (Homo sapiens (Human), UniProt P12931, T341M)
# CaMKIIγ(h) = CaMKIIγ(h) (Homo sapiens (Human), UniProt Q13555)
# Yes(h) = Yes(h) (Homo sapiens (Human), UniProt P07947)
# Chain of Yes(h) (P07947 whole entry): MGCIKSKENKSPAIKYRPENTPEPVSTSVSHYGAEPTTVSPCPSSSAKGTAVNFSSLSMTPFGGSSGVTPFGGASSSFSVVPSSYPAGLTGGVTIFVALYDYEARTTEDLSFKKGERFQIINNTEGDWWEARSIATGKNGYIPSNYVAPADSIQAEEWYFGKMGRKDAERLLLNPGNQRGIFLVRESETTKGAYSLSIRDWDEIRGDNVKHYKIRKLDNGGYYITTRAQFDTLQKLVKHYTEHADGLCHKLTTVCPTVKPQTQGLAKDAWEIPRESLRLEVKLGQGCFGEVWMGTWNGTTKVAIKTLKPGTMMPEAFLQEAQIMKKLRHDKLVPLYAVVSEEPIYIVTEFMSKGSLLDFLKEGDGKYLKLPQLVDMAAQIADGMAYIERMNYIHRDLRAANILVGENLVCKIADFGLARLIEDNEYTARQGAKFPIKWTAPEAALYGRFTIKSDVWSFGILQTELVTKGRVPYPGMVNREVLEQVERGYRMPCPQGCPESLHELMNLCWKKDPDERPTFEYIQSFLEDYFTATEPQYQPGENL
# p70S6K(h) = p70S6K(h) (Homo sapiens (Human), UniProt P23443)
# AMPKα2(h) = AMPKα2(h) (Homo sapiens (Human), UniProt P54646)
# Chain of AMPKα2(h) (P54646 whole entry): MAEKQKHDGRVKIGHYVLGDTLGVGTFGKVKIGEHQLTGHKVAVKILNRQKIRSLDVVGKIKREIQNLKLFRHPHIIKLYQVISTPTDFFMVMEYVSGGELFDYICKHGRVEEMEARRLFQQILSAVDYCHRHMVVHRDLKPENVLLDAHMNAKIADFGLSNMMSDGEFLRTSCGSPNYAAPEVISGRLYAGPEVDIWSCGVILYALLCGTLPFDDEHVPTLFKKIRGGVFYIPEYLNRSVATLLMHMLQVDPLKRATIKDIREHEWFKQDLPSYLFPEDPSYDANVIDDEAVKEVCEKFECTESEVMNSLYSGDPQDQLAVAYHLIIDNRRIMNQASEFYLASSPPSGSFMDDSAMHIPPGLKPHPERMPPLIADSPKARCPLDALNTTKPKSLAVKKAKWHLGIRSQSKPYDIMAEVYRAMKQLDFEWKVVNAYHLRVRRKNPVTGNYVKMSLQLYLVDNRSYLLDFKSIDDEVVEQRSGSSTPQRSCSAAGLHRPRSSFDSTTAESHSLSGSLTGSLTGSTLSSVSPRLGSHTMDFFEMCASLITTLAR
# Chain of AMPKα2(h) (Q9Y478 whole entry partner): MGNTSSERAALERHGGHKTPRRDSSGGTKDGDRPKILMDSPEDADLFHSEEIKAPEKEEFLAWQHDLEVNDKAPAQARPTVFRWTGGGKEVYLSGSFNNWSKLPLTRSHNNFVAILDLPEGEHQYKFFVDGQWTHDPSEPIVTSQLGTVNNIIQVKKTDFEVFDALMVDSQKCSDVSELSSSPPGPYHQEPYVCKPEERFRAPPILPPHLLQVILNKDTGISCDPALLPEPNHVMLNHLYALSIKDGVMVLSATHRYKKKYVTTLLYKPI
# Chain of AMPKα2(h) (P54619 whole entry partner): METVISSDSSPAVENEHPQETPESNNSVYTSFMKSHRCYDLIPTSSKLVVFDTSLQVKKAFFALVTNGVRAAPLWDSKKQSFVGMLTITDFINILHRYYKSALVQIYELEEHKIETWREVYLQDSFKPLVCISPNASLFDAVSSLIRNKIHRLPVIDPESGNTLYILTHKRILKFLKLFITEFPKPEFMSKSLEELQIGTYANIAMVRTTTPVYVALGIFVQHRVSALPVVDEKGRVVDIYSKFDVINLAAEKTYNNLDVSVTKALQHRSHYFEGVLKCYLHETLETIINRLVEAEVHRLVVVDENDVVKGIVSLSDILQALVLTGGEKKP
# PrKX(h) = PrKX(h) (Homo sapiens (Human), UniProt P51817)
# Chain of PrKX(h) (P51817 whole entry): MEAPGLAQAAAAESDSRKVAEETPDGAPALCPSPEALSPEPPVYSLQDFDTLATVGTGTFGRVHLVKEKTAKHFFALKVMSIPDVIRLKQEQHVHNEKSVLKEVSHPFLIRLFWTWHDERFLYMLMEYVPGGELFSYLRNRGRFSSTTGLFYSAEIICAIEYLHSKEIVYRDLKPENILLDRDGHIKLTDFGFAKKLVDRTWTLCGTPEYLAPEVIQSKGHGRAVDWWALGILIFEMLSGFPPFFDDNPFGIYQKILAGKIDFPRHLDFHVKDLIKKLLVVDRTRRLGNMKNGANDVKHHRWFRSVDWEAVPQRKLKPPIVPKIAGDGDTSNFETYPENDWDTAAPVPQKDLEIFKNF
# EphA1(h) = EphA1(h) (Homo sapiens (Human), UniProt P21709)
# BRK(h) = BRK(h) (Homo sapiens (Human), UniProt Q13882)
# Chain of BRK(h) (Q13882 whole entry): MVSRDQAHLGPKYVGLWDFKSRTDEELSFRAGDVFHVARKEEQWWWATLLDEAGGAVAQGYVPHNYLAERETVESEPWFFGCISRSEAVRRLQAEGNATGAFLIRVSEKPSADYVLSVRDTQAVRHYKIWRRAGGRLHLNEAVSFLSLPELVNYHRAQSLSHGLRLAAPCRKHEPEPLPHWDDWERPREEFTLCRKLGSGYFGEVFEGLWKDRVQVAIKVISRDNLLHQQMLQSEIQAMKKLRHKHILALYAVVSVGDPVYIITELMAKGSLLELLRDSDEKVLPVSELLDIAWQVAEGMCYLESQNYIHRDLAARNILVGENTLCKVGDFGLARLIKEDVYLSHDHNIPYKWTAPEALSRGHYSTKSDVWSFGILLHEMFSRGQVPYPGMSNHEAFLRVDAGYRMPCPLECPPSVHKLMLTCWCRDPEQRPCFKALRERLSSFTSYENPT
# SGK2(h) = SGK2(h) (Homo sapiens (Human), UniProt Q9HBY8)
# CHK2(I157T)(h) = CHK2(I157T)(h) (Homo sapiens (Human), UniProt O96017, I157T)
# AMPKα1(h) = AMPKα1(h) (Homo sapiens (Human), UniProt Q13131)
# CLK3(h) = CLK3(h) (Homo sapiens (Human), UniProt P49761)
# CaMKIV(h) = CaMKIV(h) (Homo sapiens (Human), UniProt Q16566)
# IGF-1R(h), activated = IGF-1R(h), activated (Homo sapiens (Human), UniProt P08069)
# Chain of IGF-1R(h), activated (P08069 31-1367): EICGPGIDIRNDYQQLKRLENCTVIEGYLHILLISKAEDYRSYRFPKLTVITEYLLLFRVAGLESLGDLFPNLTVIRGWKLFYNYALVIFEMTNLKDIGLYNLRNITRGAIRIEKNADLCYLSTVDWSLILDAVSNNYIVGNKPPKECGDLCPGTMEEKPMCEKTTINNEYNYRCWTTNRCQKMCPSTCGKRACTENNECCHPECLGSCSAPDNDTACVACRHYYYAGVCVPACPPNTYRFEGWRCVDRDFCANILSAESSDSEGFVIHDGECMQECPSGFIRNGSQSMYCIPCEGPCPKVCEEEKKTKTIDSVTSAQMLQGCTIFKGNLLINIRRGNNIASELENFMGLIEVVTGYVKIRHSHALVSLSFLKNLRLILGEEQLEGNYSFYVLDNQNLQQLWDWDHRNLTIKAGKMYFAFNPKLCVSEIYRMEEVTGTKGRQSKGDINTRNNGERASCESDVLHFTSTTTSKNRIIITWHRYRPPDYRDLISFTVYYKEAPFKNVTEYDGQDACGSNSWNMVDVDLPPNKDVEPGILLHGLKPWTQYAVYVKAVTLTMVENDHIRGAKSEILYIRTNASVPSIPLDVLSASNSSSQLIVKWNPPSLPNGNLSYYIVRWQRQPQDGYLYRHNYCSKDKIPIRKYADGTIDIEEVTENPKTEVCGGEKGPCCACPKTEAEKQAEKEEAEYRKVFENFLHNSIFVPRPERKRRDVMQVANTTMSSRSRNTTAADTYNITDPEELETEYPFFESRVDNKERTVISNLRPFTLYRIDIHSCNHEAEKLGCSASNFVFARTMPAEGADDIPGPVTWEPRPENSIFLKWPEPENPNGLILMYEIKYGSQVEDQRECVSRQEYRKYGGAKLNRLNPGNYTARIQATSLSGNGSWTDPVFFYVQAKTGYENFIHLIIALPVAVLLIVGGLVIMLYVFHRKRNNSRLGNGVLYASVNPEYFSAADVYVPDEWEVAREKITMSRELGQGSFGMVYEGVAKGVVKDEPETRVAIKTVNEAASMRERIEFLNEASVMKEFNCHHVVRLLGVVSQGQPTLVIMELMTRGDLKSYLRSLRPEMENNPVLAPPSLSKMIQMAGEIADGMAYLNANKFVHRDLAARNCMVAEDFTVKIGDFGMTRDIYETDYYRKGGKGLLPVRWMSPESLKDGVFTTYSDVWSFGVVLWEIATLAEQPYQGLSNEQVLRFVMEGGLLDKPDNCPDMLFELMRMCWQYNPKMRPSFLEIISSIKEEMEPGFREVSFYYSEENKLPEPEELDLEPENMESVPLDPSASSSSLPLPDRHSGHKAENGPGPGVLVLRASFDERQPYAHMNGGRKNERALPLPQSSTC
# TGFBR1(h) = TGFBR1(h) (Homo sapiens (Human), UniProt P36897)
# SGK(h) = SGK(h) (Homo sapiens (Human), UniProt O00141)
# FGFR2(h) = FGFR2(h) (Homo sapiens (Human), UniProt P21802)
# SGK3(h) = SGK3(h) (Homo sapiens (Human), UniProt Q96BR1)
# WNK3(h) = WNK3(h) (Homo sapiens (Human), UniProt Q9BYP7)
# mTOR(h) = mTOR(h) (Homo sapiens (Human), UniProt P42345)
# PAK2(h) = PAK2(h) (Homo sapiens (Human), UniProt Q13177)
# Blk(m) = Blk(m) (Mus musculus (Mouse), UniProt P16277)
# PDGFRα(h) = PDGFRα(h) (Homo sapiens (Human), UniProt P16234)
# EphA5(h) = EphA5(h) (Homo sapiens (Human), UniProt P54756)
# Fer(h) = Fer(h) (Homo sapiens (Human), UniProt P16591)
# FGFR2(N549H)(h) = FGFR2(N549H)(h) (Homo sapiens (Human), UniProt P21802, N549H)
# BTK(R28H)(h) = BTK(R28H)(h) (Homo sapiens (Human), UniProt Q06187, R28H)
# MuSK(h) = MuSK(h) (Homo sapiens (Human), UniProt O15146)
# TBK1(h) = TBK1(h) (Homo sapiens (Human), UniProt Q9UHD2)
# FGFR3(h) = FGFR3(h) (Homo sapiens (Human), UniProt P22607)
# Rse(h) = Rse(h) (Homo sapiens (Human), UniProt Q06418)
# Ron(h) = Ron(h) (Homo sapiens (Human), UniProt Q04912)
# ALK4(h) = ALK4(h) (Homo sapiens (Human), UniProt P36896)
smiles,measurement,setting,value
"CCn1c(N2CCNCC2)nc2c(Br)c(Br)c(Br)c(Br)c21 [Compound 416, 4,5,6,7-tetrabromo-1-ethyl-2-(piperazin-1-yl)-1H-benzo[d]imidazole]",remaining activity at 1 µM,HIPK2(h),1%
same,remaining activity at 1 µM,CDK2/cyclinE(h),6%
same,remaining activity at 1 µM,CDK2/cyclinA(h),7%
same,remaining activity at 1 µM,HIPK1(h),8%
same,remaining activity at 1 µM,PKCθ(h),26%
same,remaining activity at 1 µM,Ret (V804L)(h),26%
same,remaining activity at 1 µM,PKBγ(h),39%
same,remaining activity at 1 µM,Src(T341M)(h),40%
same,remaining activity at 1 µM,CaMKIIγ(h),41%
same,remaining activity at 1 µM,Yes(h),48%
same,remaining activity at 1 µM,p70S6K(h),56%
same,remaining activity at 1 µM,AMPKα2(h),67%
same,remaining activity at 1 µM,PrKX(h),74%
same,remaining activity at 1 µM,EphA1(h),75%
same,remaining activity at 1 µM,BRK(h),76%
same,remaining activity at 1 µM,SGK2(h),79%
same,remaining activity at 1 µM,CHK2(I157T)(h),80%
same,remaining activity at 1 µM,AMPKα1(h),82%
same,remaining activity at 1 µM,CLK3(h),82%
same,remaining activity at 1 µM,CaMKIV(h),85%
same,remaining activity at 1 µM,"IGF-1R(h), activated",87%
same,remaining activity at 1 µM,TGFBR1(h),87%
same,remaining activity at 1 µM,SGK(h),90%
same,remaining activity at 1 µM,FGFR2(h),91%
same,remaining activity at 1 µM,SGK3(h),92%
same,remaining activity at 1 µM,WNK3(h),94%
same,remaining activity at 1 µM,mTOR(h),95%
same,remaining activity at 1 µM,PAK2(h),95%
same,remaining activity at 1 µM,Blk(m),97%
same,remaining activity at 1 µM,PDGFRα(h),98%
same,remaining activity at 1 µM,EphA5(h),99%
same,remaining activity at 1 µM,Fer(h),100%
same,remaining activity at 1 µM,FGFR2(N549H)(h),101%
same,remaining activity at 1 µM,BTK(R28H)(h),102%
same,remaining activity at 1 µM,MuSK(h),103%
same,remaining activity at 1 µM,TBK1(h),104%
same,remaining activity at 1 µM,FGFR3(h),105%
same,remaining activity at 1 µM,Rse(h),105%
same,remaining activity at 1 µM,Ron(h),108%
same,remaining activity at 1 µM,ALK4(h),112%
